Like-named read-outs stand apart in the source and are kept apart here.
What was measured:
[1] = test system: TNFα; assay: IRAK4 Monocyte TNFα Cell Based Assay (LPS-stimulated, TR-FRET TNFα detection); set-up: species or system human; conditions: human monocytes, LPS-stimulated, Table 2 second part (compounds 33-343), read-out: EC50 MONO TNF HTRF
Protocol: IRAK4 Monocyte TNFα Cell Based Assay Procedure:
The cell suspension was then plated at a density of 5,000 cells/well onto black 384 well Greiner clear bottom plates. Plates were pre-spotted with test compounds and serially diluted in DMSO where 40 nL/well were delivered using the Echo 550 acoustic liquid dispenser (Labcyte®) for a final DMSO concentration of 0.1%. Plated cells were treated with compound for 1 hour at 37° C. Cells were then stimulated with 50 pg/ml of LPS (Sigma) excluding outside columns of plate used for unstimulated cell control wells. Cells were incubated for an additional 4 hours at 37° C. Cells were then spun out of the media and 5 μl of sample were taken and analyzed for total TNFα content using the TR-FRET Human TNFα detection system (CisBio). This system utilizes two labeled antibodies (cryptate and XL665) that bind to two different epitopes of the TNFα molecule and produce FRET signal proportional to the concentration of TNFα in the sample. Detection antibodies are mixed 50:50 and 5 μL were dispensed into each well. Plates were covered with clear seals and incubated at room temp overnight. […] Percent of control was calculated as follows: % Control=100×(RatioSample−Ratio0% Stimulation)/(Ratio100% Stimulation−Ratio0% Stimulation) where unstimulated cells (0% stimulation) were the negative control and stimulated cells (100% stimulation) were used as the positive control.

[2] = target: T1, IRAK4 enzyme (Homo sapiens, UniProt Q9NWZ3); assay: IRAK4 Biochemical Assay (TR-FRET, STK1 KinEASE); conditions: 500 μM ATP
T1 construct: purchased Carna Biosciences, Chuo-ku, Kobe, Japan
T1 sequence (Q9NWZ3 1-460): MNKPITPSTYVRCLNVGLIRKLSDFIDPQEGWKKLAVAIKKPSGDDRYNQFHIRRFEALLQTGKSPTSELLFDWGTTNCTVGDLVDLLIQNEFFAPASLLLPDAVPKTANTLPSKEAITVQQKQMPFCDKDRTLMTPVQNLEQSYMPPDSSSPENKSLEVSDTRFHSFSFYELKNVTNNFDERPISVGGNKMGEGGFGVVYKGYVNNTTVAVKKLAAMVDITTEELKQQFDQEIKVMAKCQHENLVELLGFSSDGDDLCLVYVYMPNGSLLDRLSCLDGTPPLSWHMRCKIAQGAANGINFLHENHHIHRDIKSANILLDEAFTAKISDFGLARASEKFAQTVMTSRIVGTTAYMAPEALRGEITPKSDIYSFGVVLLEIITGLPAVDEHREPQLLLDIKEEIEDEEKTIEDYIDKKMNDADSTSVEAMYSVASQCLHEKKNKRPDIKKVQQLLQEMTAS
Protocol: IRAK4 enzyme (Carna Biosciences, Chuo-ku, Kobe, Japan) activity was measured by detecting phosphorylated peptide substrate formation using an antibody against the phosphorylated peptide substrate. This is a time-resolved fluorescence resonance energy transfer (TR-FRET) immunoassay, based on the STK1 KinEASE Assay (Cisbio, Bedford, Massachusetts). The assay was designed as a simple two-step, endpoint assay (a 5 μl enzyme reaction followed by 5 μl stop and detect Solution) performed in ProxiPlate-384 Plus plates (Perkin Elmer, Waltham, Massachusetts). […] Compounds diluted in DMSO were spotted into 384 well plates using a Labcyte® Echo 550 Liquid Handling System prior to addition of IRAK4 enzyme and peptide substrate. Reaction solutions were delivered using a Multi-Flo (Bio-Tek Instruments). The enzyme and peptide solution was incubated with compound for 15 minutes at room temp before the reaction was initiated by the addition of ATP. The standard 5 μl reaction mixture contained 500 μM ATP, 2 μM peptide (STK1 Peptide), 0.75 nM of IRAK4 in reaction buffer (50 mM HEPES, pH 7.0, 0.02% NaN3, 0.01% BSA, 0.1 mM Orthovanadate, 5 mM MgCl2, 0.025% NP-40, 1 mM DTT). After 120 min of incubation at room temperature, 5 μl of Stop and Detect Solution (1:100 Cryptate labeled anti-phosphorylated peptide antibody solution and 125 nM Tracer in a 50 mM HEPES pH 7.0 detection buffer containing sufficient EDTA) was added. The plate was then further incubated for 60 minutes at room temperature and read on Envision 2103 Multilabeled reader (PerkinElmer) with excitation/emission/FRET emission at 340 nm/615 nm/665 nm, respectively. Fluorescence intensities at 615 nm and 665 nm emission wavelengths were expressed as a ratio (665 nm/615 nm).

[3] = Table 2 second part (compounds 33-343), read-out: IC50 IRAK4-HTBS

| Compound | IC50 [2, 3] | EC50 ([1]; Homo sapiens, Monocyte) | other results |
| --- | --- | --- | --- |
| 7-(5-(5-(4-aminobicyclo[2.2.2]octan-1-yl)-1,3,4-thiadiazol-2-yl)-4-((tetrahydro-2H-pyran-4-yl)amino)pyridin-2-yl)pyrrolo[1,2-b]pyridazine-3-carbonitrile [Example 336] | 0.7 nM | – | EC50 [1]: 11 nM |
| CC(C)Nc1cc(-c2ccc3cc(C#N)cnn23)ncc1-c1nnc([C@@H]2CC[C@H]2C(C)(C)O)s1 (racemic) [Example 88, 7-(5-(5-((1,2-trans)-2-(2-hydroxypropan-2-yl)cyclobutyl)-1,3,4-thiadiazol-2-yl)-4-(isopropylamino)pyridin-2-yl)pyrrolo[1,2-b]pyridazine-3-carbonitrile] | – | – | IC50 ([2]; IC50 IRAK4-HTBS, Table 2 second part (compounds 33-343)): 0.83 nM |
| CC(=O)N[C@@H]1[C@@H]2CN(c3nnc(-c4cnc(-c5ccc6cc(C#N)cnn56)cc4NC(C)C)s3)C[C@@H]21 [Compound 239, N-((1R,5S,6r)-3-(5-(6-(3-cyanopyrrolo[1,2-b]pyridazin-7-yl)-4-(isopropylamino)pyridin-3-yl)-1,3,4-thiadiazol-2-yl)-3-azabicyclo[3.1.0]hexan-6-yl)acetamide] | 0.11 nM | 4.9 nM | – |
| CC(=O)N[C@H]1[C@@H]2CN(c3nnc(-c4cnc(-c5ccc6cc(C#N)cnn56)cc4NC(C)C)s3)C[C@@H]21 [Compound 240, N-((1R,5S,6s)-3-(5-(6-(3-cyanopyrrolo[1,2-b]pyridazin-7-yl)-4-(isopropylamino)pyridin-3-yl)-1,3,4-thiadiazol-2-yl)-3-azabicyclo[3.1.0]hexan-6-yl)acetamide] | 0.15 nM | 8.9 nM | – |
| CC(=O)N[C@H]1CC[C@H](c2nnc(-c3cnc(-c4ccc5cc(C#N)cnn45)cc3NC34CCC(O)(CC3)CC4)s2)CC1 [Compound 241, N-((1r,4r)-4-(5-(6-(3-cyanopyrrolo[1,2-b]pyridazin-7-yl)-4-((4-hydroxybicyclo[2.2.2]octan-1-yl)amino)pyridin-3-yl)-1,3,4-thiadiazol-2-yl)cyclohexyl)acctamide] | 1.39 nM | 4.8 nM | – |
| CC(=O)N[C@H]1CC[C@H](c2nnc(-c3cnc(-c4ccc5cc(C#N)cnn45)cc3N[C@H]3C[C@@](C)(O)C3)s2)CC1 [Compound 243, N-((1R,4r)-4-(5-(6-(3-cyanopyrrolo[1,2-b]pyridazin-7-yl)-4-(((1s,3S)-3-hydroxy-3-methylcyclobutyl)amino)pyridin-3-yl)-1,3,4-thiadiazol-2-yl)cyclohexyl)acetamide] | 0.55 nM | 6.4 nM | – |
| CC(=O)N[C@H]1CC[C@H](c2nnc(-c3cnc(-c4ccc5cc(C#N)cnn45)cc3N[C@H]3CCC[C@@H](O)C3)s2)CC1 [Compound 245, N-((1S,4r)-4-(5-(6-(3-cyanopyrrolo[1,2-b]pyridazin-7-yl)-4-(((1S,3R)-3-hydroxycyclohexyl)amino)pyridin-3-yl)-1,3,4-thiadiazol-2-yl)cyclohexyl)acetamide] | 0.55 nM | 3.2 nM | – |
| CC(=O)N[C@H]1CC[C@H](c2nnc(-c3cnc(-c4ccc5cc(C#N)cnn45)cc3NC3CCOCC3)s2)CC1 [Compound 255, N-((1r,4r)-4-(5-(6-(3-cyanopyrrolo[1,2-b]pyridazin-7-yl)-4-((tetrahydro-2H-pyran-4-yl)amino)pyridin-3-yl)-1,3,4-thiadiazol-2-yl)cyclohexyl)acetamide] | 0.63 nM | 5.1 nM | – |
| CC(C)Nc1cc(-c2ccc3cc(C#N)cnn23)ncc1-c1nnc(N2CCS(=N)(=O)CC2)s1 [Compound 262, 7-(5-(5-(1-imino-1-oxido-116-thiomorpholino)-1,3,4-thiadiazol-2-yl)-4-(isopropylamino)pyridin-2-yl)pyrrolo[1,2-b]pyridazine-3-carbonitrile] | 3.81 nM | 69.9 nM | – |
| CC(=O)N[C@H]1CC[C@H](c2nnc(-c3cnc(-c4ccc5cc(C#N)cnn45)cc3NC3(C)CCOCC3)s2)CC1 [Compound 268, N-((1r,4r)-4-(5-(6-(3-cyanopyrrolo[1,2-b]pyridazin-7-yl)-4-((4-methyltetrahydro-2H-pyran-4-yl)amino)pyridin-3-yl)-1,3,4-thiadiazol-2-yl)cyclohexyl)acetamide] | 0.61 nM | 14.1 nM | – |
| CC(=O)N[C@@H]1[C@@H]2CC[C@H]1CN(c1nnc(-c3cnc(-c4ccc5cc(C#N)cnn45)cc3NC3(C)CCOCC3)s1)C2 [Compound 272, N-((1R,5S,8s)-3-(5-(6-(3-cyanopyrrolo[1,2-b]pyridazin-7-yl)-4-((4-methyltetrahydro-2H-pyran-4-yl)amino)pyridin-3-yl)-1,3,4-thiadiazol-2-yl)-3-azabicyclo[3.2.1]octan-8-yl)acetamide] | 1.1 nM | 4.1 nM | – |
| CC(C)Nc1cc(-c2ccc3cc(C#N)cnn23)ncc1-c1nnc(N2C3CC2CN(C(=O)CN=S(C)(C)=O)C3)s1 [Compound 276, 7-(5-(5-(3-(2-((dimethyl(oxo)-16-sulfanylidene)amino)acetyl)-3,6-diazabicyclo[3.1.1]heptan-6-yl)-1,3,4-thiadiazol-2-yl)-4-(isopropylamino)pyridin-2-yl)pyrrolo[1,2-b]pyridazinc-3-carbonitrile] | 0.89 nM | 7.8 nM | – |
| CC(=O)N[C@H]1C[C@H](c2nnc(-c3cnc(-c4ccc5cc(C#N)cnn45)cc3NC(C)C)s2)C1 [Compound 278, N-((1r,3r)-3-(5-(6-(3-cyanopyrrolo[1,2-b]pyridazin-7-yl)-4-(isopropylamino)pyridin-3-yl)-1,3,4-thiadiazol-2-yl)cyclobutyl)acetamide] | 0.07 nM | ≥ 10000 nM | – |
| CC(=O)N[C@H]1CC[C@H](c2nnc(-c3cnc(-c4ccc5cc(C#N)cnn45)cc3NC(C)C)s2)CC1 [Example 24, N-((1r,4r)-4-(5-(6-(3-cyanopyrrolo[1,2-b]pyridazin-7-yl)-4-(isopropylamino)pyridin-3-yl)-1,3,4-thiadiazol-2-yl)cyclohexyl)acetamide] | – | – | IC50 ([2]; Table 2 first part (compounds 1-32), read-out: IC50 HTRF): < 1 nM |
| CC(=O)N[C@@H]1CCN(c2nnc(-c3cnc(-c4ccc5cc(C#N)cnn45)cc3NC(C)C)s2)C[C@@H]1O [Example 63, N-((3S,4R)-1-(5-(6-(3-cyanopyrrolo[1,2-b]pyridazin-7-yl)-4-(isopropylamino)pyridin-3-yl)-1,3,4-thiadiazol-2-yl)-3-hydroxypiperidin-4-yl)acetamide] | 0.29 nM | – | – |
| CC(C)Nc1cc(-c2ccc3cc(C#N)cnn23)ncc1-c1nnc(N2C[C@H]3CC[C@@H](C2)[C@H]3O)s1 [Example 146, 7-(5-(5-((1R,5S,8r)-8-hydroxy-3-azabicyclo[3.2.1]octan-3-yl)-1,3,4-thiadiazol-2-yl)-4-(isopropylamino)pyridin-2-yl)pyrrolo[1,2-b]pyridazine-3-carbonitrile] | 0.48 nM | – | – |
| CC(C)Nc1cc(-c2ccc3cc(C#N)cnn23)ncc1-c1nnc(N2C[C@H]3CC[C@@H](C2)[C@@H]3O)s1 [Example 154, 7-(5-(5-((1R,5S,8s)-8-hydroxy-3-azabicyclo[3.2.1]octan-3-yl)-1,3,4-thiadiazol-2-yl)-4-(isopropylamino)pyridin-2-yl)pyrrolo[1,2-b]pyridazine-3-carbonitrile] | 1.57 nM | – | – |

Reference: US12060351B2, “Thiadiazole IRAK4 inhibitors” (Gilead Sciences, Inc., priority 2018, dated 2024)
